In paper PMC12475274, “Harnessing indole scaffolds to identify small-molecule IRE1α inhibitors modulating XBP1 mRNA splicing” (Nature Communications, 2025):
Values joined by “and” are separate entries in the source; they are usually repeats but may differ in a detail not shown here. Equal entries are not always repeated. Where two headings read alike, the source gives them in different places.

How the values were obtained:
[1] = molecular target: T1, dephosphorylated IRE1α (547–977) (Homo sapiens, UniProt O75460); assay: FRET-based IRE1α RNase activity assay, dephosphorylated IRE1α; type: biochemical; conditions: for inhibition at 50 µM: read-out: IRE1α inhibition%
T1 construct: Human IRE1α kinase and RNase domain (residues 547–977) was subcloned into pLIB plasmid; His tag (with TEV cleavage site) (N, cleaved yes); made in house; host or cells: Sf9 insect cells, baculovirus (Bac-to-Bac)
Experimental: (§1) Human IRE1α kinase and RNase domain (residues 547–977) was subcloned into pLIB plasmid with a His tag and TEV cleavage site, and expressed using Bac-to-Bac expression system. The primers used are listed in Supplementary Table S3. The protein purification was performed following established procedures. Briefly, Sf9 cells were infected with baculovirus and incubated at 27 °C 110 rpm for 72 h. The cells were collected by centrifugation at 4000 × g for 15 min and the cell pellet was resuspended in lysis buffer (50 mM HEPES pH 7.5, 300 mM NaCl, 10% glycerol, 1 mM MgCl2, 1 mM TCEP, 5 mM imidazole), then supplemented with 1:10,000 benzonase (Sigma, E1014), 1 tablet/25 mL […]™ Protease Inhibitor Cocktail tablets (Sigma, S8830) and 1 mM PMSF before lysed by sonication at 4 °C. […] The protein elution was incubated with TEV protease to remove His tag at 4 °C overnight. Then the sample was diluted 1:6 in buffer (50 mM HEPES pH 7.5, 1 mM TCEP, 5% glycerol) and loaded onto a 5 mL pre-packaged Q HP anion exchange column (Cytiva, HiTrap Q HP) pre-equilibrated with QA buffer (50 mM HEPES pH 7.5, 50 mM NaCl, 1 mM TCEP, 5% glycerol). The unphosphorylated and phosphorylated protein was separated by eluting the protein with a very shallow gradient with 0-30% buffer QB (50 mM HEPES pH 7.5, 1 M NaCl, 1 mM TCEP, 5% glycerol) over 80 CV. Different peaks were collected separately and verified by LC-MS. The fully phosphorylated fraction was collected and further purified by size exclusion chromatography (Cytiva, HiLoad 16/600 Superdex 200 pg,) with SEC buffer (25 mM HEPES pH 7.5, 250 mM NaCl, 1 mM TCEP, 10% glycerol) and fractioned as monomeric peak. The rest protein fraction from the Q HP anion exchange column was incubated with Lambda protein phosphatase (New England BioLabs, P0753S) overnight at 4 °C, the dephosphorylation was confirmed by LC-MS. The unphosphorylated protein was further purified by size exclusion chromatography with the SEC buffer described above. The purified phosphorylated (p-IRE1α) and dephosphorylated (IRE1α) protein aliquots were stored at −80 °C for future usage.
The dual-labeled RNA substrate with a FAM at 5’ and the BHQ-1 at 3’ containing the XBP1 sequence (5′FAM-[…]-3′BHQ1) was purchased from Integrated DNA Technologies (IDT). The FRET-based IRE1α RNase activity assay was carried out in reaction buffer containing 20 mM HEPES pH 7.5, 50 mM KOAc, 1 mM MgOAc2, 1 mM DTT, 0.05% v/v TritonX-100, at a total reaction volume of 20 μL in a 384-well black plate (4514, Corning). For unphosphorylated IRE1α (IRE1α), a final concentration of 40 nM IRE1α protein and 100 nM RNA substrate was used. For phosphorylated IRE1 (p-IRE1α), a final concentration of 4 nM p-IRE1α protein and 200 nM RNA substrate was used. The indicated compound and IRE1α protein were incubated for 30 min at room temperature before the substrate was added to the reaction. The plate was then kinetically read over one hour at room temperature using a TECAN Spark plate reader. The measurement was carried out using the fluorescence top reading mode at the excitation wavelength of 485 nm and the emission wavelength of 535 nm with a 10 nm excitation and emission bandwidth. The linear part of the reaction curve was adopted and fitted with sample linear regression to obtain the slope, and the slope was adopted to reflect the reaction rate. The inhibition % was calculated by using the equation: inhibition% = 100 × (slope of DMSO control – slope of the sample)/(slope of DMSO control – slope of blank control), DMSO control: DMSO with protein and RNA substrate; Blank control: DMSO with RNA substrate. The IC50 values were calculated using the concentration-response model in GraphPad Prism 9. […]

[2] = molecular target: T2, phosphorylated IRE1α (p-IRE1α) (Homo sapiens, UniProt O75460); assay: FRET-based IRE1α RNase activity assay, phosphorylated IRE1α; type: biochemical; conditions: for inhibition at 50 µM: FRET assay at 50 μM, read-out: p-IRE1α inhibition%
T2 construct: Human IRE1α kinase and RNase domain (residues 547–977) was subcloned into pLIB plasmid; His tag (with TEV cleavage site) (N, cleaved yes); made in house; host or cells: Sf9 insect cells, baculovirus (Bac-to-Bac)
Experimental: as §1
The dual-labeled RNA substrate with a FAM at 5’ and the BHQ-1 at 3’ containing the XBP1 sequence (5′FAM-[…]-3′BHQ1) was purchased from Integrated DNA Technologies (IDT). The FRET-based IRE1α RNase activity assay was carried out in reaction buffer containing 20 mM HEPES pH 7.5, 50 mM KOAc, 1 mM MgOAc2, 1 mM DTT, 0.05% v/v TritonX-100, at a total reaction volume of 20 μL in a 384-well black plate (4514, Corning). For unphosphorylated IRE1α (IRE1α), a final concentration of 40 nM IRE1α protein and 100 nM RNA substrate was used. For phosphorylated IRE1 (p-IRE1α), a final concentration of 4 nM p-IRE1α protein and 200 nM RNA substrate was used. The indicated compound and IRE1α protein were incubated for 30 min at room temperature before the substrate was added to the reaction. The plate was then kinetically read over one hour at room temperature using a TECAN Spark plate reader. The measurement was carried out using the fluorescence top reading mode at the excitation wavelength of 485 nm and the emission wavelength of 535 nm with a 10 nm excitation and emission bandwidth. The linear part of the reaction curve was adopted and fitted with sample linear regression to obtain the slope, and the slope was adopted to reflect the reaction rate. The inhibition % was calculated by using the equation: inhibition% = 100 × (slope of DMSO control – slope of the sample)/(slope of DMSO control – slope of blank control), DMSO control: DMSO with protein and RNA substrate; Blank control: DMSO with RNA substrate. The IC50 values were calculated using the concentration-response model in GraphPad Prism 9.

[3] = FRET assay at 50 μM, mean (± SEM)
[4] = FRET assay, RNase activity, mean (± SEM)
[5] = FRET assay, RNase activity, mean (± SEM), read-out: IRE1α IC50
[6] = FRET assay, RNase activity, mean (± SEM), read-out: p-IRE1α IC50
[7] = FRET assay, source data, unit from Fig. 3 / sheet Fig. 2b, read-out: IRE1a IC50, individual replicates (n1-n4)
[8] = FRET assay, source data, unit from Fig. 3, read-out: p-IRE1a IC50, individual replicates (n1-n4)
[9] = IRE1a, individual replicates (n1-n4), Supplementary Fig. 2b, 2c, read-out: IC50
[10] = IRE1a, mean, Supplementary Fig. 2b, 2c, read-out: IC50, mean
[11] = p-IRE1a, individual replicates (n1-n3), Supplementary Fig. 2b, 2c, read-out: IC50
[12] = p-IRE1a, mean, Supplementary Fig. 2b, 2c, read-out: IC50, mean

T2 sequence (O75460 547-977): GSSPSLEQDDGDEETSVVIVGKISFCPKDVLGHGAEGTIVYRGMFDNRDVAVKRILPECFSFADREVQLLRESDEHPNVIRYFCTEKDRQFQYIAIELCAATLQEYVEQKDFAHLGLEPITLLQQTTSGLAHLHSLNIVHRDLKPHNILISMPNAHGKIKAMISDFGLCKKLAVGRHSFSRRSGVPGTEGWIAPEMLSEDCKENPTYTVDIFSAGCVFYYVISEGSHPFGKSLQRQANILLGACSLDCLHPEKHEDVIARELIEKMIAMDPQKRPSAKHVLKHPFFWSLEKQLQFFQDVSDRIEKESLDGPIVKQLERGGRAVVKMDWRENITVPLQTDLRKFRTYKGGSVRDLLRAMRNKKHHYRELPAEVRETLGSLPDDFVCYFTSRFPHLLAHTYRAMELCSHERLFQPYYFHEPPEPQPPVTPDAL
T1 sequence (O75460 547-977): as above

Compound | IC50 [1, 5] | IC50 [2, 6] | IC50 [1, 7] | IC50 [2, 8] | also measured
COc1ccc2c(c1)c(CC(=O)O)c(C)n2C(=O)c1ccc(Cl)cc1 [Indomethacin, indomethacin, reference compound] |  |  |  |  | IRE1α inhibition% ([1]; FRET assay at 50 μM, mean (± SEM), 50 µM): < 30%; inhibition at 50 µM [1, 3]: ≤ 50%; inhibition at 50 µM ([2]; mean (± SEM)): < 30%
COc1ccc2[nH]c(C)c(CCC(=O)O)c2c1 [IA72] | > 20000 nM | > 20000 nM |  |  | IRE1α IC50 [1, 4]: IC₅₀ not reached; p-IRE1α IC50 [2, 4]: IC₅₀ not reached
COc1ccc2c(c1)c(Cc1ccc(O)cc1)c(C)n2C(=O)c1ccc(Cl)cc1 [cms10] |  |  |  |  | inhibition at 50 µM [1, 3]: < 30%; inhibition at 50 µM ([2]; mean (± SEM)): < 30%
Cc1c(CCC(=O)O)c2cc(OC(F)(F)F)ccc2n1C(=O)c1ccccc1 [IA148] | 570 ± 360 nM | 940 nM | 524 nM and 238 nM and 957 nM | 986 nM and 798 nM and 1020 nM | reduction in IRE1α inhibition relative to IA64 ([1]; FRET IC50): ~ 19 fold
COc1ccc2c(c1)c(CCC(=O)O)c(C)n2C(=O)c1cccc(C(F)(F)F)c1 [IA36] | 100 nM | 60 nM and 56.1 nM | 39.8 nM and 135 nM and 138 nM | 105 nM and 45 nM and 18 nM | 
COc1ccc2c(c1)c(CC(=O)O)c(C)n2C(=O)c1ccc(N(C)C)cc1 [idm06] |  |  |  |  | Inhibiton% @ 50 Μm ([1]; IRE1a, @ 50 Μm, individual replicates (n1-n3), Supplementary Fig. 2a): 31.43% and 32.06% and 32.96% and 41.19% and 38.68%; Inhibiton% @ 50 Μm, mean ([1]; IRE1a, @ 50 Μm, mean, Supplementary Fig. 2a): 35.27%; Inhibiton% @ 50 Μm ([2]; p-IRE1a, @ 50 Μm, individual replicates (n1-n3), Supplementary Fig. 2a): 36.04% and 36.79% and 33.53% and 36.40% and 23.29% and 29.46%; Inhibiton% @ 50 Μm, mean ([2]; p-IRE1a, @ 50 Μm, mean, Supplementary Fig. 2a): 32.58%
COc1ccc2c(c1)c(CCC(=O)O)c(C)n2C(=O)c1ccc2c(c1)C(=O)c1ccccc1C2=O [IA32] | 760 nM | 610 nM | 589 nM and 971 nM and 1100 nM and 378 nM | 1080 nM and 593 nM and 159 nM | 
COC(=O)CCc1c(C)n(C(=O)c2ccc(Cl)cc2)c2ccc(OC)cc12 [cms04] |  |  |  |  | inhibition at 50 µM [1, 3]: < 30%; inhibition at 50 µM ([2]; mean (± SEM)): < 30%
COc1ccc2c(c1)c(CC(=O)OC(C)C)c(C)n2C(=O)c1ccc(Cl)cc1 [cms07] |  |  |  |  | inhibition at 50 µM [1, 3]: < 30%; inhibition at 50 µM ([2]; mean (± SEM)): < 30%
COc1ccc2c(c1)c(CCC(=O)O)c(C)n2C(=O)N(C)C [IA76] | > 20000 nM | > 20000 nM |  |  | IRE1α IC50 [1, 4]: IC₅₀ not reached; p-IRE1α IC50 [2, 4]: IC₅₀ not reached
Cc1c(CCC(=O)O)c2cc(C(C)C)ccc2n1C(=O)c1ccccc1 [IA110] | 240 nM | 200 nM | 230 nM and 198 nM and 292 nM | 205 nM (2×) and 190 nM | 
COc1ncc(-c2ccc3c(c2)c(CCC(=O)O)c(C)n3C(=O)c2ccccc2)c(OC)n1 [IA143] | 14100 nM | 39400 nM | 19600 nM and 14000 nM and 8760 nM | 40500 nM and 47100 nM and 30600 nM | 
COc1ccc2c(c1)c(CCC(=O)O)c(C)n2C(=O)c1ccc(Br)cc1 [IA02] | 1460 nM | 1960 nM | 869 nM and 1330 nM and 2170 nM | 2090 nM and 2100 nM and 1670 nM | 
Cc1c(CCC(=O)O)c2cc(F)ccc2n1C(=O)c1cccs1 [IA48] |  |  |  |  | IC50 [1, 9]: 542 nM and 383 nM and 121 nM; IC50 [1, 10]: 350 nM; IC50 [2, 11]: 1070 nM and 419 nM and 737 nM; IC50 [2, 12]: 740 nM
Cc1c(CCC(=O)O)c2ccccc2n1C(=O)c1cccc(C#N)c1 [IA41] |  |  |  |  | IC50 [1, 9]: 2320 nM and 4340 nM and 2120 nM; IC50 [1, 10]: 2930 nM; IC50 [2, 11]: 4900 nM and 768 nM; IC50 [2, 12]: 2840 nM
Cc1c(CCC(=O)O)c2cc(-c3ccncc3)ccc2n1C(=O)c1ccccc1 [IA153] | 2160 nM | 11600 nM | 2900 nM and 1770 nM and 1820 nM | 12400 nM and 15400 nM and 6990 nM | 
Cc1c(CCC(=O)O)c2cc(Br)ccc2n1C(=O)c1cccs1 [IA44] |  |  |  |  | IC50 [1, 9]: 90 nM and 91.2 nM and 59.1 nM; IC50 [1, 10]: 80 nM; IC50 [2, 11]: 168 nM and 34.5 nM; IC50 [2, 12]: 100 nM
Cc1c(CCC(=O)O)c2cc(Cl)ccc2n1C(=O)c1cccc(C#N)c1 [IA63] |  |  |  |  | IC50 [1, 9]: 101 nM and 84.1 nM and 98.1 nM; IC50 [1, 10]: 90 nM; IC50 [2, 11]: 204 nM and 404 nM and 78.9 nM; IC50 [2, 12]: 230 nM
COc1ccc2c(c1)c(C(C)=O)c(C)n2C(=O)c1ccc(Cl)cc1 [cms08] |  |  |  |  | inhibition at 50 µM [1, 3]: < 30%; inhibition at 50 µM ([2]; mean (± SEM)): < 30%
CCOC(=O)Cc1c(C)n(C(=O)c2ccc(Cl)cc2)c2ccc(OC)cc12 [cms05] |  |  |  |  | inhibition at 50 µM [1, 3]: < 30%; inhibition at 50 µM ([2]; mean (± SEM)): < 30%
Cc1c(CCC(=O)O)c2cc(-c3ccccc3C#N)ccc2n1C(=O)c1ccccc1 [IA159] | 6220 nM and 6230 nM | 28300 nM | 5530 nM and 6930 nM | 34900 nM and 21700 nM | 
COc1ccc(C(=O)n2c(C)c(CCC(=O)O)c3cc(OC)ccc32)cc1 [IA96] | 170 nM | 200 nM | 55.7 nM and 53.7 nM and 388 nM | 83 nM and 113 nM and 398 nM | 
